Here are results for 2 compounds from publication PMC3610419, “A Randomized, Double-Blind Placebo Controlled Trial of Balapiravir, a Polymerase Inhibitor, in Adult Dengue Patients” (The Journal of Infectious Diseases, 2012).

As a reminder, the Cmax is the maximum level reached in the sampled fluid or tissue.

In data set [1] the test system is DENV reference strains and clinical isolates. In words: Inhibition of DENV replication in Huh-7 cells, summary over all strains. The class given is cell-based, dengue virus.
Procedure: The mean and standard deviation shown represent 3 independent (different date) experiments for each virus tested. Huh-7 cells were plated in 96-well plate at 10,000 cells/well in DMEM containing 10 % FBS in 100 μl volume one day prior to set up of the assay. The following day the medium was aspirated off and diluted virus at a multiplicity of infection of 0.5 or media was added to the assay and control wells, respectively. The virus was allowed to attach to the cells for two hours at 37°C in a humidified 5% C02 atmosphere while the dilutions of the test molecule were prepared. Test molecules (or medium as a control) were added after aspiration of the virus-containing media 2 hours post-infection in 3-fold dilutions at a final DMSO concentration of 1%. After 48 hrs, cells were washed and cellular RNA were isolated. In this study, we used a quantitative real time PCR method to quantitate dengue viral RNA in Huh-7 in the presence of inhibitors. Viral RNA and endogenous 18S rRNA control (Applied Bio System) was quantified by a real time PCR assay using the following primers. […] Taqman was performed in duplicate. […] First ΔCt was calculated by subtracting 18S rRNA CT value from dengue RNA CT value. ΔCts from duplicate taqman assay were averaged. […] Relative quantification was calculated using the following formula. Relative quantification = 2^-averageΔΔCT. […]
The subject of data set [2] is DENV-1, DENV-2, and DENV-4. In words: Activity against DENV in dendritic cells. In kind it is cell-based. The settings on record: Dengue virus, Dendritic cell, DENV-1, DENV-2, DENV-4, data not shown, read-out: mean EC50 range.
For data set [3] the following is noted: cited from earlier work.
For data set [4], the system named is DENV-1, DENV-2, and DENV-4. Kind of data set: Activity against DENV in primary human macrophages. The class given is cell-based. As to conditions: Dengue virus, Macrophage, DENV-1, DENV-2, DENV-4, data not shown, read-out: mean EC50 range.
The nature of a further data set: clinical. As to conditions: human, in vivo. The method, then: Randomization to treatment group was by computer-generated randomization sequencing in blocks of 2. Balapiravir was formulated in a 500-mg film-coated tablet. The placebo consisted of an identical looking tablet containing excipient only. All balapiravir and placebo tablets were provided by F. Hoffmann-La Roche. Patients in cohort 1 (n = 20) received 1500 mg of balapiravir or an identical placebo orally every 12 hours for 5 days (10 doses). The decision to dose escalate (to 3000 mg) was made after review of the partially unblinded group mean clinical and laboratory data acquired from patients in cohort 1. Patients in cohort 2 (n = 44) received 3000 mg of balapiravir or placebo orally twice a day for 5 days (10 doses).
Serum samples for pharmacokinetic investigations were collected at time 0 (predose) and 2, 4, 8, and 12 hours postdose on days 1 and 5. Pharmacokinetics parameters were calculated using noncompartmental methods.

For the next data set, the system named is DENV-4. In words: Inhibition of DENV replication in Huh-7 cells, viral RNA by quantitative real time PCR. As to conditions: 48 hrs, mean ± SD of 3 experiments. The class given is cell-based, dengue virus. The method, then: (§1) ^a Each experiment was done in duplicate. The mean and standard deviation shown represent 3 independent (different date) experiments for each virus tested. Huh-7 cells were plated in 96-well plate at 10,000 cells/well in DMEM containing 10 % FBS in 100 μl volume one day prior to set up of the assay. The following day the medium was aspirated off and diluted virus at a multiplicity of infection of 0.5 or media was added to the assay and control wells, respectively. The virus was allowed to attach to the cells for two hours at 37°C in a humidified 5% C02 atmosphere while the dilutions of the test molecule were prepared. Test molecules (or medium as a control) were added after aspiration of the virus-containing media 2 hours post-infection in 3-fold dilutions at a final DMSO concentration of 1%. After 48 hrs, cells were washed and cellular RNA were isolated. In this study, we used a quantitative real time PCR method to quantitate dengue viral RNA in Huh-7 in the presence of inhibitors. Viral RNA and endogenous 18S rRNA control (Applied Bio System) was quantified by a real time PCR assay using the following primers. Dengue Reverse (Common to all the serotypes): 5’-[…]-3’, Dengue forward serotype 1: 5’-[…]-3’, Dengue forward serotype 2 or 3: 5’-[…]-3’, Dengue forward serotype 4: 5’-[…] -3’ and Dengue probe (Common to all the serotypes): 5'-/56-FAM/[…]/3BHQ_1/-3'. Taqman was performed in duplicate. IC50 was obtained using the following calculations. First ΔCt was calculated by subtracting 18S rRNA CT value from dengue RNA CT value. ΔCts from duplicate taqman assay were averaged. Then ΔΔCt was obtained by subtracting the average ΔCt of non-treated sample from the treated sample average ΔCt. Relative quantification was calculated using the following formula. Relative quantification = 2^-averageΔΔCT. The 50% inhibitory concentrations (EC50) were calculated using the sigmoidal dose-response model in Microsoft XLfit.
(In general: In qPCR the cycle at which signal appears reflects the starting amount.)

The test system of another data set is DENV-3. The data set is described as above. The settings on record: 48 hrs, mean ± SD of 3 experiments. The class given is cell-based, dengue virus. The procedure: as §1
Another data set has as its system DENV-1. The data set is described as above. In kind it is cell-based, dengue virus. The settings on record: 48 hrs, mean ± SD of 3 experiments. The method, then: as §1
The test system of the next data set is DENV-2. Described as above. The class given is cell-based, dengue virus. The settings on record: 48 hrs, mean ± SD of 3 experiments. The method, then: as §1

Where two headings read alike, the source gives them in different places.

As to `[N-]=[N+]=N[C@]1(CO)O[C@@H](n2ccc(N)nc2=O)[C@H](O)[C@@H]1O` [R1479, 4′-azidocytidine], the EC50 in data set [1] (Dengue virus, Huh-7, read-out: mean half maximal effective concentration (EC50) values) was in the range of 1900 to 11000 nM; in data set [2], 5200 to 6000 nM; in [4] it was 1300 to 3200 nM. In addition, the “Cmax above the HCV replicon EC50” value in data set [3] (500 mg balapiravir twice daily) is reported as more than 5 fold. Besides, the “mean plasma trough level above the human serum adjusted HCV replicon EC50” value in data set [3] (1500 mg balapiravir twice daily) is reported as 3.5 fold. The “ratio of mean plasma trough level to human serum adjusted HCV replicon EC50” value is on record as 4.9 in data set [3] (3000 mg balapiravir twice daily) and 7.8 in [3] (4500 mg balapiravir twice daily). The Cmax in the data set “clinical” was 25 to 145 µM; in the data set “clinical” (1500 mg, Cmax), 16.5 µM; in the data set “clinical” (1500 mg, plasma Cmax of R1479), more than 6 µM; in the data set “clinical” (3000 mg, Cmax), 23.9 µM. The “mean Cmin concentrations that may need to be exceeded for antiviral effects on DENV” value in the data set “clinical” lay in the range of 6.7 to 39 µM.
As for `C#C[C@@]1(O)[C@H](O)[C@@H](CO)O[C@H]1n1ccc2c(N)ncnc21` [NITD008, reference compound], the IC50 with DENV-4 (DENV-4 strain H241, Huh-7 cells) stood at 600 ± 100 nM; with DENV-4 (DENV-4 strain Phili/1567, Huh-7 cells) it was 100 ± 100 nM; in the data set with DENV-4 (DENV-4 strain Senga/DA, Huh-7 cells), 300 ± 100 nM; with DENV-4 (DENV-4 strain Venz/JQ, Huh-7 cells), 200 ± 100 nM; with DENV-3 (DENV-3 strain 33/0072 (clinical isolate), Huh-7 cells) it was 500 ± 200 nM; with DENV-3 (DENV-3 strain 33/0096 (clinical isolate), Huh-7 cells) it was 300 ± 100 nM. Also, the IC50 in the data set on DENV-3 (DENV-3 strain 33/0177 (clinical isolate), Huh-7 cells) turned out to be 300 nM; in the data set on DENV-3 (DENV-3 strain 33/0253 (clinical isolate), Huh-7 cells), 600 nM; in the data set on DENV-3 (DENV-3 strain H87, Huh-7 cells), 400 ± 100 nM; with DENV-1 (DENV-1 strain FR28 (clinical isolate)) it was 500 ± 100 nM; with DENV-1 (DENV-1 strain FR34 (clinical isolate)), 500 ± 200 nM; in the data set on DENV-1 (DENV-1 strain FR37 (clinical isolate)) it was 400 ± 100 nM. Further, the IC50 is 500 ± 200 nM in the data set with DENV-1 (DENV-1 strain FR42 (clinical isolate)); 400 ± 100 nM in the data set with DENV-1 (DENV-1 strain Thsman); 500 ± 200 nM in the data set on DENV-2 (DENV-2 strain 32/0102 (clinical isolate), Huh-7 cells); 300 nM with DENV-2 (DENV-2 strain 32/0140 (clinical isolate), Huh-7 cells); 400 ± 200 nM in the data set on DENV-2 (DENV-2 strain 33/0051 (clinical isolate), Huh-7 cells); 300 ± 200 nM with DENV-2 (DENV-2 strain 33/0178 (clinical isolate), Huh-7 cells). In addition, the IC50 in the data set on DENV-2 (DENV-2 strain Th36, Huh-7 cells) is 500 ± 100 nM; in [1] (Huh-7 cells, range over DENV strains, read-out: Mean values of median inhibitory concentration (IC50)), 100 to 600 nM.
